Test results: patent US8247377B2, “Non-steroidal glucocorticoid inhibitors and their use in treating inflammation, allergy and auto-immune conditions” (Glaxo Group Limited, priority 2006, dated 2012)

How the values were obtained:
progesterone receptor = molecular target: T1, progesterone receptor (Homo sapiens, UniProt P06401); experiment: Assay for progesterone receptor activity (CV-1 cells, PRb-BacMam/MMTV-BacMam); format: cell-based; details: CV-1 cells transduced with PRb-BacMam and MMTV-BacMam; read-out: pEC50 progesterone receptor activity (converted)
T1 construct: expressed in transfected cells; host or cells: CV-1 cells transduced with PRb-BacMam and MMTV-BacMam
T1 sequence (P06401 1-933): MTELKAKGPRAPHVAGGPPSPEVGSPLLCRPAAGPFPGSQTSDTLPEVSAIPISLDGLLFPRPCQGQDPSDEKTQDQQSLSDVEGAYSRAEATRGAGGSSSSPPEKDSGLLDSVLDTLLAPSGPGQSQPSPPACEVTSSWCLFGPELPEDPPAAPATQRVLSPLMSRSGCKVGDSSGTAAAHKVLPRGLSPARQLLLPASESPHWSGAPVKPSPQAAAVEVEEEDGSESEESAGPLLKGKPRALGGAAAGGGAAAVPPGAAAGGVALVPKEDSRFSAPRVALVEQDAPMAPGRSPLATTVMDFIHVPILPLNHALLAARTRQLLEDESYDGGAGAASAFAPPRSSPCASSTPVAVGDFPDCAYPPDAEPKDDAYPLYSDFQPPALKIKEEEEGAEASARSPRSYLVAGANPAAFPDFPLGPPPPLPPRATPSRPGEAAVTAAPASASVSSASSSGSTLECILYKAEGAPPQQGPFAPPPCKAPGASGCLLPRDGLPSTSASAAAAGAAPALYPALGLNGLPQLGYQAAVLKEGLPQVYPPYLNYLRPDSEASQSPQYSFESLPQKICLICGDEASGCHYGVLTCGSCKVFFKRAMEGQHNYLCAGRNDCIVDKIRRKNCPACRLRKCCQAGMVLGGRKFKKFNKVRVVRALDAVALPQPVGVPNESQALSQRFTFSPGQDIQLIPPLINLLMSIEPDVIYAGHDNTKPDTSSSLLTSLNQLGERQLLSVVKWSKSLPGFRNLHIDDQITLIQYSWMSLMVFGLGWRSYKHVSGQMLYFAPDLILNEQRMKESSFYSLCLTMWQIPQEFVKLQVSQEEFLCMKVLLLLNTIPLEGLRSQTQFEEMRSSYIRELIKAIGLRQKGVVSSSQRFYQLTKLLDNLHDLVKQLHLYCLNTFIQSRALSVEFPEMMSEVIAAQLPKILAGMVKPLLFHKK
Method in brief: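 CV-1 cells co-transduced with PRb-BacMam and MMTV-BacMam (10% each), seeded onto compounds in DMEM with 10% serum. After 24 h, luminescence was read with Steadylite. pEC50 values were estimated from dose-response curves.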

glucocorticoid receptor = molecular target: T2, glucocorticoid receptor (Homo sapiens, UniProt P04150); experiment: Glucocorticoid receptor binding assay (fluorescence polarisation); details: competition with Alexa 555 fluorescently-labelled dexamethasone derivative, full length glucocorticoid receptor; read-out: glucocorticoid binding pIC50 (converted)
T2 construct: a partially purified full length glucocorticoid receptor
T2 sequence (P04150 1-777): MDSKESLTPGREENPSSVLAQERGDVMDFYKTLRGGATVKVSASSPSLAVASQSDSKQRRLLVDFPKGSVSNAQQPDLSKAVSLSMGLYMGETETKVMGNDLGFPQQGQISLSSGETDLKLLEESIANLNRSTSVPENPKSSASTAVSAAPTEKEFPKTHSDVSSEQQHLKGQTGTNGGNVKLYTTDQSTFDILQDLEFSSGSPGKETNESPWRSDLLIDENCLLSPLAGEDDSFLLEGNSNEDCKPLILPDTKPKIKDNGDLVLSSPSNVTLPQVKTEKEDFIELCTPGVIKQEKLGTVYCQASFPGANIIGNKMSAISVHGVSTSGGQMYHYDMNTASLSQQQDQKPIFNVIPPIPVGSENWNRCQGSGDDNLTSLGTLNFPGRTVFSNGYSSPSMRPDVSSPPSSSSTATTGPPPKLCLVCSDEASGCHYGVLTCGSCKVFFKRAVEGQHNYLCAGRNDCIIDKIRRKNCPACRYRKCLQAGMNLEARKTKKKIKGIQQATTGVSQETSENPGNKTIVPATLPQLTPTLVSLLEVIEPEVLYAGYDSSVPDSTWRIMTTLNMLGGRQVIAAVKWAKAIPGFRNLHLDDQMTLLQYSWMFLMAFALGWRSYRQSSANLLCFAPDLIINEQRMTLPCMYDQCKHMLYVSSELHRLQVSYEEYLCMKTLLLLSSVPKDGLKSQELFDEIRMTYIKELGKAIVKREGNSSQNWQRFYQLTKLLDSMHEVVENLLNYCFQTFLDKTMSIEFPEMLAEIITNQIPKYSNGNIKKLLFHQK
Method in brief: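 Compounds in DMSO incubated with fluorescent dexamethasone and partially purified full-length GR plus stabilising buffer components, 2 hrs at room temperature in the dark. Displacement read as decrease in fluorescence polarisation; pIC50 estimated from dose-response curves.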

Row | SMILES | EC50 (progesterone receptor) [µM] | IC50 (glucocorticoid receptor) [µM]
1 | CCN(CC(O)(CNC(=O)c1cnn(-c2cccc(F)c2)c1N)C(F)(F)F)C(=O)c1c(F)cccc1F (racemic) [Example 38 (racemic), 5-amino-N-(2-{[[(2,6-difluorophenyl)carbonyl](ethyl)amino]methyl}-3,3,3-trifluoro-2-hydroxypropyl)-1-(3-fluorophenyl)-1H-pyrazole-4-carboxamide] | > 1 | ≤ 0.316
2 | CCN(CC(O)(CNC(=O)c1cnn(-c2cc(F)cc(F)c2)c1N)C(F)(F)F)C(=O)c1c(F)cccc1F (racemic) [Example 35 (racemic), 5-amino-1-(3,5-difluorophenyl)-N-(2-{[[(2,6-difluorophenyl)carbonyl](ethyl)amino]methyl}-3,3,3-trifluoro-2-hydroxypropyl)-1H-pyrazole-4-carboxamide] | > 1 | ≤ 0.316
3 | Nc1c(C(=O)NCC(O)(CN(CCF)C(=O)c2c(Cl)cccc2OC(F)F)C(F)(F)F)cnn1-c1ccc(F)cc1 (racemic) [Example 31 (racemic), 5-amino-N-(2-{[({2-chloro-6-[(difluoromethyl)oxy]phenyl}carbonyl)(2-fluoroethyl)amino]methyl}-3,3,3-trifluoro-2-hydroxypropyl)-1-(4-fluorophenyl)-1H-pyrazole-4-carboxamide] | > 1 | ≤ 0.316
4 | CCN(CC(O)(CNC(=O)c1cnn(-c2ccc(F)cc2)c1N)C(F)(F)F)C(=O)c1ccccc1S(C)(=O)=O (single isomer, unassigned) [Example 10 Enantiomer 1, 5-Amino-N-{2-[(ethyl{[2-(methylsulfonyl)phenyl]carbonyl}amino)methyl]-3,3,3-trifluoro-2-hydroxypropyl}-1-(4-fluorophenyl)-1H-pyrazole-4-carboxamide] | > 1 | ≤ 0.316
5 | Nc1c(C(=O)NCC(O)(CN(CCF)C(=O)c2c(F)cccc2F)C(F)(F)F)cnn1-c1ccc(F)cc1 (racemic) [Example 17 (racemic), 5-amino-N-(2-{[[(2,6-difluorophenyl)carbonyl](2-fluoroethyl)amino]methyl}-3,3,3-trifluoro-2-hydroxypropyl)-1-(4-fluorophenyl)-1H-pyrazole-4-carboxamide] | > 1 | ≤ 0.316
6 | CCN(CC(O)(CNC(=O)c1cnn(-c2ccc(F)cc2)c1N)C(F)(F)F)C(=O)c1ccccc1S(C)(=O)=O (racemic) [Example 10 (racemic), 5-Amino-N-{2-[(ethyl{[2-(methylsulfonyl)phenyl]carbonyl}amino)methyl]-3,3,3-trifluoro-2-hydroxypropyl}-1-(4-fluorophenyl)-1H-pyrazole-4-carboxamide] | > 1 | ≤ 0.316
7 | Nc1c(C(=O)NCC(O)(CNC(=O)c2c(F)cccc2Br)C(F)(F)F)cnn1-c1ccc(F)cc1 (single isomer, unassigned) [Example 13 Enantiomer 1, 5-Amino-N-[2-({[(2-bromo-6-fluorophenyl)carbonyl]amino}methyl)-3,3,3-trifluoro-2-hydroxypropyl]-1-(4-fluorophenyl)-1H-pyrazole-4-carboxamide] | > 1 | ≤ 0.316
8 | CCN(CC(O)(CNC(=O)c1cnn(-c2ccc(Cl)cc2)c1N)C(F)(F)F)C(=O)c1c(F)cccc1F (racemic) [Example 39 (racemic), 5-amino-1-(4-chlorophenyl)-N-(2-{[[(2,6-difluorophenyl)carbonyl](ethyl)amino]methyl}-3,3,3-trifluoro-2-hydroxypropyl)-1H-pyrazole-4-carboxamide] | > 1 | ≤ 0.316
9 | Nc1c(C(=O)NCC(O)(CNC(=O)c2c(Br)cccc2Br)C(F)(F)F)cnn1-c1ccc(F)cc1 (racemic) [Example 11 (racemic), 5-Amino-N-[2-({[(2,6-dibromophenyl)carbonyl]amino}methyl)-3,3,3-trifluoro-2-hydroxypropyl]-1-(4-fluorophenyl)-1H-pyrazole-4-carboxamide] | > 1 | ≤ 0.316
10 | Nc1c(C(=O)NCC(O)(CNC(=O)c2c(C(F)F)cccc2C(F)F)C(F)(F)F)cnn1-c1ccc(F)cc1 (single isomer, unassigned) [Example 43 Enantiomer 1, 5-Amino-N-{2-[({[2,6-bis(difluoromethyl)phenyl]carbonyl}amino)methyl]-3,3,3-trifluoro-2-hydroxypropyl}-1-(4-fluorophenyl)-1H-pyrazole-4-carboxamide] | > 1 | ≤ 0.316
11 | Nc1c(C(=O)NCC(O)(CNC(=O)c2c(Cl)cccc2OC(F)F)C(F)(F)F)cnn1-c1ccc(F)cc1 (single isomer, unassigned) [Example 14 Enantiomer 1, 5-Amino-N-(2-{[({2-chloro-6-[(difluoromethyl)oxy]phenyl}carbonyl)amino]methyl}-3,3,3-trifluoro-2-hydroxypropyl)-1-(4-fluorophenyl)-1H-pyrazole-4-carboxamide] | > 1 | ≤ 0.316
12 | CN(CC(O)(CNC(=O)c1cnn(-c2ccc(F)cc2)c1N)C(F)(F)F)C(=O)c1c(F)cccc1F (racemic) [Example 8 (racemic), 5-Amino-N-(2-{[[(2,6-difluorophenyl)carbonyl](methyl)amino]methyl}-3,3,3-trifluoro-2-hydroxypropyl)-1-(4-fluorophenyl)-1H-pyrazole-4-carboxamide] | > 1 | ≤ 0.316
13 | CCN(CC(O)(CNC(=O)c1cnn(-c2ccccc2F)c1N)C(F)(F)F)C(=O)c1c(F)cccc1F (racemic) [Example 42 (racemic), 5-amino-N-(2-{[[(2,6-difluorophenyl)carbonyl](ethyl)amino]methyl}-3,3,3-trifluoro-2-hydroxypropyl)-1-(2-fluorophenyl)-1H-pyrazole-4-carboxamide] | > 1 | ≤ 0.316
14 | Nc1c(C(=O)NCC(O)(CNC(=O)c2c(F)cccc2Br)C(F)(F)F)cnn1-c1ccc(F)cc1 (racemic) [Example 13 (racemic), 5-Amino-N-[2-({[(2-bromo-6-fluorophenyl)carbonyl]amino}methyl)-3,3,3-trifluoro-2-hydroxypropyl]-1-(4-fluorophenyl)-1H-pyrazole-4-carboxamide] | > 1 | ≤ 0.316
15 | CCN(CC(O)(CNC(=O)c1cnn(-c2ccc(F)cc2F)c1N)C(F)(F)F)C(=O)c1c(F)cccc1F (racemic) [Example 34 (racemic), 5-amino-1-(2,4-difluorophenyl)-N-(2-{[[(2,6-difluorophenyl)carbonyl](ethyl)amino]methyl}-3,3,3-trifluoro-2-hydroxypropyl)-1H-pyrazole-4-carboxamide] | > 1 | ≤ 0.316
16 | CN(CC(O)(CNC(=O)c1cnn(-c2ccc(F)cc2)c1N)C(F)(F)F)C(=O)c1c(Cl)cccc1Cl (racemic) [Example 1 (racemic), 5-Amino-N-(2-{[[(2,6-dichlorophenyl)carbonyl](methyl)amino]methyl}-3,3,3-trifluoro-2-hydroxypropyl)-1-(4-fluorophenyl)-1H-pyrazole-4-carboxamide] | > 1 | ≤ 0.316
